Data on 51 molecules can be found in patent US8642774B2, “Compounds” (Boehringer Ingelheim International GmbH, priority 2011, dated 2014).

The EC50 is the concentration at which the effect is half-maximal.

The target in this experiment is T1, human recombinant mGluR5 (Homo sapiens, UniProt P41594).
T1 construct: expressed in transfected cells; host or cells: HEK 293 cell line, cultured with tetracycline, hygromycin and geneticin; tetracycline is withdrawn 3-7 days before the assay
T1 sequence (P41594 21-1212): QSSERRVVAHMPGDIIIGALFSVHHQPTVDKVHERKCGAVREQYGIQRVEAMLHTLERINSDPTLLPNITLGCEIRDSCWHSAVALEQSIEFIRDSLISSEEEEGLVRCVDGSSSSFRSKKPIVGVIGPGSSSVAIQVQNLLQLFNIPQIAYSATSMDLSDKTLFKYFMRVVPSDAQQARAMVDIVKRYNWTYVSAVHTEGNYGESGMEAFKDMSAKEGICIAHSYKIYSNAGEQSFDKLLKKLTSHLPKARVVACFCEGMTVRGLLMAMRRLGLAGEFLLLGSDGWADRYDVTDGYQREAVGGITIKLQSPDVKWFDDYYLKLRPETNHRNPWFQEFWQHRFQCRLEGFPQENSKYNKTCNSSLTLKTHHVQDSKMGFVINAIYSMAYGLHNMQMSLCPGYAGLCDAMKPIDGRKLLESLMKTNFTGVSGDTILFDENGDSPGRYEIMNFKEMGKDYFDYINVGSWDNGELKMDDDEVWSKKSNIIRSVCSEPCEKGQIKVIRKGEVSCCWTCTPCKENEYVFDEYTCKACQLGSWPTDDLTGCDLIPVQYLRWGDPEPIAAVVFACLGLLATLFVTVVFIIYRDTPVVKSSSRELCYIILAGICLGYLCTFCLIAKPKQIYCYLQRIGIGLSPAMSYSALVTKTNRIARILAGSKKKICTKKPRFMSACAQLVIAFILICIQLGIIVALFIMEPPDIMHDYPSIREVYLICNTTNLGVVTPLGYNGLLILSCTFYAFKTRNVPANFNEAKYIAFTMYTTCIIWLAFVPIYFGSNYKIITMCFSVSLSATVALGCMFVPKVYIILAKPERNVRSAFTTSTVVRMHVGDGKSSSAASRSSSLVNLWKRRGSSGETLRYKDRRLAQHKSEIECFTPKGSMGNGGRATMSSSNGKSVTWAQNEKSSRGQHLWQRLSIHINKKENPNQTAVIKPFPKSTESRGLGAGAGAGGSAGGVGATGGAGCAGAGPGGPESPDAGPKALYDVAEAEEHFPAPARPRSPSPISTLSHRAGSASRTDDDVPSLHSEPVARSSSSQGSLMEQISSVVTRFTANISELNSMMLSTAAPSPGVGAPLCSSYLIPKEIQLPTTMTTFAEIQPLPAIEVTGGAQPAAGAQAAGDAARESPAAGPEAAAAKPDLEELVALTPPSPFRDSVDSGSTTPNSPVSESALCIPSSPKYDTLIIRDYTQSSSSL
In words: positive modulation of mGluR5, calcium based FLIPR assay. The experiment is classed as cell-based. To be noted: EC50 of the modulation; HEK 293 cell line expressing human recombinant mGluR5; peak height of Ca fluorescence signal after glutamate at approx. 5% basal stimulation; read-out: EC50. As for the experimental part: The positive modulation of mGluR5 is measured in a HEK 293 cell line expressing human recombinant mGluR5 and is detected with calcium based FLIPR assay. The cells are cultured with DMEM supplemented with 10% FCS, 2 μg/mL tetracycline, 100 μg/mL hygromycin and 500 μg/mL gneticin. The cell culture media is exchanged for tetracycline-free cell culture media 3-7 days before the assay. One day before the assay the cell culture medium is exchanged to DMEM without glutamine and phenol red and supplemented with 10% FCS, 100 μg/mL hygromycin and 500 μg/mL geneticin. On the assay day, the medium of the subconfluent cultures is removed and the cells are detached by addition of 2.5 ml EDTA (0.02%) per 175 cm2 culture flask for 1 minute. The cells are resuspend in Ringer solution (140 mM NaCl, 5 mM KCl, 2.5 mM CaCl2, 1.5 mM MgCl2, 5 mM Glucose, 10 mM Hepes; adjusted to pH 7.4 with NaOH), pooled and Ringer solution added to adjust the volume to 50 mL. The cell suspension is centrifuged for 5 min at 1500 U/min (425 g). The supernatant is removed and the cells washed a second time with 50 ml fresh Ringer solution and centrifuged again as before. The supernatant is again removed and the pellet resuspended in Ringer solution to 1,000,000 cells/ml (1×10^6 cells/mL). The cells are plated onto BD BioCoat Poly-D-Lysine 384 well plates (20.000 cells/well; 20 μl/well). The lid covered plates are then incubated until use at 37° C./10% CO2. For dye loading, 20 μl of Calcium-4 assay kit solution (prepared according to the manufacturer's description in Ringer solution) are added to the cells and the plates are incubated for 80 min 37° C. and then 10 min at room temperature. • Controls, Compound dilution and assay execution: • Each assay plate contained wells with “high” and “low” controls:
Low controls 1% DMSO/ringer solution+basal glutamate activation (defined as 100% CTL).
High controls 10 μM CDPPB+basal glutamate activation (defined as 200% CTL).
Test compounds are dissolved and diluted in DMSO to 100-fold the desired concentrations. In a second step, the compounds are diluted in Ringer solution such that the compounds are 4-fold more concentrated than the desired final assay concentration. The final DMSO concentration was 1%.
20 μl of each compound solution are then transferred to the assay plate and the Ca2+ kinetic is measured to determine any intrinsic compound activity. After 5 min incubation in the FLIPR device, the second stimulation with 20 μl of glutamate in Ringer solution (glutamate concentration adjusted to approximately 5% basal stimulation of the maximal possible glutamate effect) is added and the kinetic Ca2+ response of the wells was measured for the modulation effect.
The peak height of the Ca release related fluorescence signal (9-66) is used for the EC50. The EC50 of the modulation is calculated over a nonlinear regression with GraphPad Prism (Table 1).
For the molecule `N#Cc1ccc2c(c1)CCN(C(=O)Cn1nc(-c3ccc(F)cc3)nc1-c1ccc(F)cc1)C2` [Example 7.02.48.], the EC50 came to 972 nM.

Turning to `Cn1ncc2c1CN(C(=O)Cn1nc(-c3ccc(F)cc3)nc1-c1ccc(F)cc1)C2` [Example 7.02.49.], the EC50 worked out at 1360 nM.

For the molecule `O=C(Cn1nc(-c2ccc(F)cc2)nc1-c1ccc(F)cc1)N1CCC(c2ncc(Cl)cn2)CC1` [Example 7.02.50.], the EC50 worked out at 216 nM.

Consider `O=C(Cn1nc(-c2ccc(F)cc2)nc1-c1ccc(F)cc1)N1CCc2cn[nH]c2CC1` [Example 7.02.51.], for which the EC50 was found to be 707 nM.

For the molecule `O=C(Cn1nc(-c2ccc(F)cc2)nc1-c1ccc(F)cc1)N1CCC(c2ccon2)CC1` [Example 7.02.52.], the EC50 stood at 472 nM.

On to `O=C(Cn1nc(-c2ccc(F)cc2)nc1-c1ccc(F)cc1)N1CCc2cc(O)ccc2C1` [Example 7.02.53.], for which the EC50 turned out to be 229 nM.

In the case of `Cc1nc2c(o1)CN(C(=O)Cn1nc(-c3ccc(F)cc3)nc1-c1ccc(F)cc1)CC2` [Example 7.02.54.], the EC50 is 206 nM.

`Cc1ncc2c(n1)CCN(C(=O)Cn1nc(-c3ccc(F)cc3)nc1-c1ccc(F)cc1)C2` [Example 7.02.55.]: the EC50 worked out at 1200 nM.

`Cc1nc2c(s1)CN(C(=O)Cn1nc(-c3ccc(F)cc3)nc1-c1ccc(F)cc1)CC2` [Example 7.02.56.]: the EC50 turned out to be 932 nM.

Consider `O=C(Cn1nc(-c2ccc(F)cc2)nc1-c1ccc(F)cc1)N1CCC(c2ncno2)CC1` [Example 7.02.57.], for which the EC50 is 1450 nM.

Take `O=C(Cn1nc(-c2ccc(F)cc2)nc1-c1ccc(F)cc1)N1Cc2ccc(O)cc2C1` [Example 7.02.58.]: the EC50 stood at 214 nM.

For `Cc1nnc(C2CCN(C(=O)Cn3nc(-c4ccc(F)cc4)nc3-c3ccc(F)cc3)CC2)o1` [Example 7.02.59.], the EC50 is 450 nM.

Turning to `COc1ncc2c(n1)CCN(C(=O)Cn1nc(-c3ccc(F)cc3)nc1-c1ccc(F)cc1)C2` [Example 7.02.60.], the EC50 is 294 nM.

As for `Cc1noc(C2CCN(C(=O)Cn3nc(-c4ccc(F)cc4)nc3-c3ccc(F)cc3)CC2)n1` [Example 7.02.61.], the EC50 came to 511 nM.

On to `COc1cc2c(cc1OC)CCN(C(=O)Cn1nc(-c3ccc(F)cc3)nc1-c1ccc(F)cc1)CC2` [Example 7.02.62.], for which the EC50 worked out at 311 nM.

With `O=C(Cn1nc(-c2ccc(F)cc2)nc1-c1ccc(F)cc1)N1Cc2nc(-c3ccccc3)sc2C1` [Example 7.02.63.], the EC50 was 1010 nM.

Regarding `O=C(Cn1nc(-c2ccc(F)cc2)nc1-c1ccc(F)cc1)N1CCC(c2ccccn2)C1` (stereo not drawn) [Example 7.02.64.], the EC50 was found to be 976 nM.

On to `Cc1nc2c(o1)CCN(C(=O)Cn1nc(-c3ccc(F)cc3)nc1-c1ccc(F)cc1)C2` [Example 7.02.65.], for which the EC50 was 407 nM.

Regarding `O=C(Cn1nc(-c2ccc(F)cc2)nc1-c1ccc(F)cc1)N1CC=C(c2ccccc2)CC1` [Example 7.02.66.], the EC50 is 559 nM.

As for `O=C(Cn1nc(-c2ccc(F)cc2)nc1-c1ccc(F)cc1)N1CCc2cccnc2CC1` [Example 7.02.67.], the EC50 was determined as 133 nM.

Take `O=C(Cn1nc(-c2ccc(F)cc2)nc1-c1ccc(F)cc1)N1CCN(c2nnc(C(F)(F)F)s2)CC1` [Example 7.02.68.]: the EC50 was 198 nM.

`CC(C)c1ncc2c(n1)CCN(C(=O)Cn1nc(-c3ccc(F)cc3)nc1-c1ccc(F)cc1)C2` [Example 7.02.70.]: the EC50 turned out to be 376 nM.

As to `O=C(c1ccccc1)C1CCN(C(=O)Cn2nc(-c3ccc(F)cc3)nc2-c2ccc(F)cc2)CC1` [Example 7.02.71.], the EC50 turned out to be 441 nM.

`O=C(Cn1nc(-c2ccc(F)cc2)nc1-c1ccc(F)cc1)N1CC(c2ccccn2)C1` [Example 7.02.72.]: the EC50 was found to be 774 nM.

For `O=C(Cn1nc(-c2ccc(F)cc2)nc1-c1ccc(F)cc1)N1CCN(c2noc3ccccc23)CC1` [Example 7.02.73.], the EC50 is 148 nM.

Consider `O=C(Cn1nc(-c2ccc(F)cc2)nc1-c1ccc(F)cc1)N1CCN(c2ncnc3sccc23)CC1` [Example 7.02.74.], for which the EC50 was found to be 798 nM.

Take `O=C(Cn1nc(-c2ccc(F)cc2)nc1-c1ccc(F)cc1)N1CCN(c2ncnc3c2SCC3)CC1` [Example 7.02.76.]: the EC50 was found to be 242 nM.

Take `CC(=O)Nc1nc2c(s1)CCN(C(=O)Cn1nc(-c3ccc(F)c(C)c3)nc1-c1ccccc1)CC2` [Example 7.02.77.]: the EC50 came to 232 nM.

Turning to `Cc1cc(-c2nc(-c3ccccc3)n(CC(=O)N3CCc4nc(N)sc4C3)n2)ccc1F` [Example 7.02.78.], the EC50 worked out at 274 nM.

As to `COC(=O)c1ccc2c(c1)CCN(C(=O)Cn1nc(-c3ccc(F)c(C)c3)nc1-c1ccccc1)CC2` [Example 7.02.79.], the EC50 came to 54 nM.

Regarding `Cc1cc(-c2nc(-c3ccccc3)n(CC(=O)N3CCc4ncnc(-c5ccccc5)c4CC3)n2)ccc1F` [Example 7.02.80.], the EC50 worked out at 323 nM.

For the molecule `Cc1nc2c(s1)CC(C)N(C(=O)Cn1nc(-c3ccc(F)c(C)c3)nc1-c1ccccc1)CC2` (stereo not drawn) [Example 7.02.81.], the EC50 came to 175 nM.

In the case of `Cc1cc(-c2nc(-c3ccccc3)n(CC(=O)N3CCc4cc(-c5ccccc5)nnc4CC3)n2)ccc1F` [Example 7.02.82.], the EC50 was determined as 149 nM.

`COc1ccc2c(n1)CCN(C(=O)Cn1nc(-c3ccc(F)c(C)c3)nc1-c1ccccc1)CC2` [Example 7.02.83.]: the EC50 is 105 nM.

In the case of `Cc1nc2c(s1)CN(C(=O)Cn1nc(-c3ccc(F)c(C)c3)nc1-c1ccccc1)CC2` [Example 7.02.84.], the EC50 was 115 nM.

Regarding `COc1nc2c(s1)CCN(C(=O)Cn1nc(-c3ccc(F)c(C)c3)nc1-c1ccccc1)CC2` [Example 7.02.85.], the EC50 was 33 nM.

Consider `Cc1nc2c(o1)CCN(C(=O)Cn1nc(-c3ccc(F)c(C)c3)nc1-c1ccccc1)CC2` [Example 7.02.86.], for which the EC50 was determined as 28 nM.

With `Cc1cc(-c2nc(-c3ccccc3)n(CC(=O)N3CCc4ncsc4CC3)n2)ccc1F` [Example 7.02.87.], the EC50 is 58.8 nM.

Turning to `Cc1cc(-c2nc(-c3ccccc3)n(CC(=O)N3CCc4ccc(N)cc4CC3)n2)ccc1F` [Example 7.02.88.], the EC50 is 180 nM.

With `Cc1cc(-c2nc(-c3ccccc3)n(CC(=O)N3CCc4cn[nH]c4CC3)n2)ccc1F` [Example 7.02.89.], the EC50 came to 194 nM.

As to `COc1cc2c(cc1OC)CCN(C(=O)Cn1nc(-c3ccc(F)c(C)c3)nc1-c1ccccc1)CC2` [Example 7.02.90.], the EC50 stood at 155 nM.

For `COc1ccc2c(c1)CCN(C(=O)Cn1nc(-c3ccc(F)c(C)c3)nc1-c1ccccc1)CC2` [Example 7.02.91.], the EC50 came out at 107 nM.

In the case of `Cc1nc2c(o1)CCN(C(=O)Cn1nc(-c3ccc(F)c(C)c3)nc1-c1ccccc1)C2` [Example 7.02.92.], the EC50 amounted to 46 nM.

Turning to `Nc1nc2c(s1)CCN(C(=O)Cn1nc(-c3ccc(F)cc3)nc1-c1ccc(F)cc1)CC2` [Example 7.03.001., 1-(2-Amino-4,5,7,8-tetrahydro-thiazolo[4,5-d]azepin-6-yl)-2-(3,5-bis-(4-fluoro-phenyl)-(1,2,4)triazol-1-yl)-ethanone], the EC50 was found to be 164 nM.

With `O=C(Cn1nc(-c2ccc(F)cc2)nc1-c1ccc(F)cc1)N1CCc2nc(-c3ccccc3)ncc2C1` [Example 7.03.002.], the EC50 worked out at 708 nM.

Turning to `Cc1nc(C2CCN(C(=O)Cn3nc(-c4ccc(F)cc4)nc3-c3ccc(F)cc3)CC2)oc1C` [Example 7.03.003.], the EC50 was found to be 851 nM.

As for `O=C(Cn1nc(-c2ccc(F)cc2)nc1-c1ccc(F)cc1)N1CCC(C(O)c2ccccc2)CC1` (stereo not drawn) [Example 7.03.004.], the EC50 stood at 1060 nM.

Take `O=C(Cn1nc(-c2ccc(F)cc2)nc1-c1ccc(F)cc1)N1CCC(Oc2ccccc2)CC1` [Example 7.03.005.]: the EC50 was 958 nM.

As to `COc1cc2c(cc1OC)CN(C(=O)Cn1nc(-c3ccc(F)cc3)nc1-c1ccc(F)cc1)CC2` [Example 7.03.006.], the EC50 worked out at 1680 nM.

Take `O=C(Cn1nc(-c2ccc(F)cc2)nc1-c1ccc(F)cc1)N1CCN(Cc2ccccc2)C(=O)C1` [Example 7.03.007.]: the EC50 worked out at 1380 nM.

In the case of `O=C(Cn1nc(-c2ccc(F)cc2)nc1-c1ccc(F)cc1)N1CCC(c2nnc(-c3ccccc3)o2)CC1` [Example 7.03.008.], the EC50 came to 752 nM.
